Data: paper PMC11007962, “First-in-human study of GFH018, a small molecule inhibitor of transforming growth factor-β receptor I inhibitor, in patients with advanced solid tumors” (BMC Cancer, 2024)
Read-outs that look alike come from different tables or passages of the source.

Tested on: patients with advanced solid tumors
[1] = 85 mg BID 14d-on/14d-off (N = 12)

Procedure: The study consisted of a dose-escalation part followed by an expansion part. In the dose escalation part, a 3-day pharmacokinetic (PK) lead-in period was conducted for a single dose in the first treatment cycle. Patients received GFH018 once on cycle 1 day 1 (C1D1) and underwent serial PK testing over the first 3 days. On C1D4, patients were administered the corresponding dose of GFH018 BID 14 days on/14 days off. The first cycle was defined as 31 days, including 3-day PK leading-in period with GFH018 single dosing and then 14d-on/14d-off dosing schedule. The subsequent cycles were 28 days. The starting dose of GFH018 was 5 mg, with eight planned dose levels up to 85 mg (5, 10, 20, 30, 40, 50, 65, and 85 mg). A modified 3+3 design was used to determine the maximum tolerance dose (MTD) and RDE, guided by safety/tolerability and PK data. Dose-limiting toxicities (DLTs) were evaluated during the first cycle at each dose level. The safety of 85 mg BID, 7 d-on/7 d-off, was explored after confirming the safety of 14 d-on/14 d-off. The DLTs were defined as hematological toxicities, including G4 neutropenia lasting for more than 5 days, G3 febrile neutropenia, G4 anemia, G4 thrombocytopenia, or G3 thrombocytopenia accompanied by bleeding, and ≥ G3 nonhematological toxicity (except for diarrhea, nausea, vomiting, and rash recovering ≤ G2 after supportive treatment within 3 days). The DLTs for cardiac toxicities included ≥ G2 cardiac valve abnormalities, ≥ G2 left ventricular ejection fraction (LVEF) decrease, any cardiovascular impairment shown in imaging, and abnormal highly sensitive troponin (hs-Tn) increased to ≥ twice the baseline in two consecutive tests with an interval ≥ 3 days. In the expansion part, patients were orally administered GFH018 RDE twice daily to further evaluate the safety of RDE and other dose regimens. […] The treatment cycle lasted 28 days.
All enrolled patients were monitored regularly after GFH018 administration. Safety assessments included adverse events (AEs), serious AEs (SAEs), laboratory assessments, vital signs, physical examinations, electrocardiography and echocardiography. AEs were graded according to the NCI Common Terminology Criteria for Adverse Events (NCI-CTCAE) v5.0. All AEs were followed up until they were stable or had recovered to baseline. Adverse events of special interest (AESIs) were predefined as echocardiographic abnormalities such as aggravated stenosis or regurgitation of the heart valves, clinically significant decreases in LVEF, brain natriuretic peptide (BNP) or N-terminal pro-brain natriuretic peptide (NT-proBNP) increases, and hs-Tn increases judged by investigators.
For the safety and efficacy analyses, data from patients who received GFH018 at the same dose in the dose-escalation and expansion cohorts were pooled. The demographic and baseline characteristics were summarized using descriptive methods. Safety and efficacy data were summarized for all patients who received at least one dose of GFH018. The ORR and DCR were summarized by cohort and overall. When the sample size of the analyzed group was ten or more, the Kaplan–Meier method was used to estimate the median PFS and TTP. In this study, treatment-emergent AEs (TEAEs) were defined as AEs that occurred on or after the first dosing date of GFH018 and no later than 30 days after the last dose of GFH018. The incidence and severity of AEs were descriptively summarized according to dose level. The PK parameters of GFH018 were calculated using noncompartmental analysis methods. All plasma PK data were summarized by cohort and visit day or time using descriptive statistics.

## Cc1cccc(-c2nn3c(c2-c2ccc4ncnn4c2/C=C/C(N)=O)CCC3)n1 [GFH018]
85 mg BID 7d-on/7d-off (N = 6)
  TEAE: ALT increased, any grade (Table S3): 0 n (%)
  TEAE: ALT increased, maximal CTCAE grade G1: 0 n (%)
  TEAE: ALT increased, maximal CTCAE grade G2: 0 n (%)
  TEAE: ALT increased, maximal CTCAE grade G3: 0 n (%)
  TEAE: ALT increased, maximal CTCAE grade G4: 0 n (%)
  TEAE: ALT increased, maximal CTCAE grade G5: 0 n (%)
  TEAE: AST increased: 1 (16.7%) n (%)
  TEAE: AST increased, any grade (Table S3): 1 (16.7%) n (%)
  TEAE: AST increased, maximal CTCAE grade G1: 1 (16.7%) n (%)
  TEAE: AST increased, maximal CTCAE grade G2: 0 n (%)
  TEAE: AST increased, maximal CTCAE grade G3: 0 n (%)
  TEAE: AST increased, maximal CTCAE grade G4: 0 n (%)
  TEAE: AST increased, maximal CTCAE grade G5: 0 n (%)
  TEAE: Abdominal distention: 1 (16.7%) n (%)
  TEAE: Abdominal pain: 2 (33.3%) n (%)
  TEAE: Anemia: 2 (33.3%) n (%)
  TEAE: Asthenia: 1 (16.7%) n (%)
  TEAE: Bilirubin conjugated increased: 1 (16.7%) n (%)
  TEAE: Blood albumin decreased: 1 (16.7%) n (%)
  TEAE: Blood bilirubin increased: 0 n (%)
  TEAE: C-reactive protein increased: 0 n (%)
  TEAE: C-reactive protein increased, any grade (Table S3): 0 n (%)
  TEAE: C-reactive protein increased, maximal CTCAE grade G1: 0 n (%)
  TEAE: C-reactive protein increased, maximal CTCAE grade G2: 0 n (%)
  TEAE: C-reactive protein increased, maximal CTCAE grade G3: 0 n (%)
  TEAE: C-reactive protein increased, maximal CTCAE grade G4: 0 n (%)
  TEAE: C-reactive protein increased, maximal CTCAE grade G5: 0 n (%)
  TEAE: Constipation: 0 n (%)
  TEAE: Decreased appetite: 2 (33.3%) n (%)
  TEAE: Decreased appetite, any grade (Table S3): 2 (33.3%) n (%)
  TEAE: Decreased appetite, maximal CTCAE grade G1: 1 (16.7%) n (%)
  TEAE: Decreased appetite, maximal CTCAE grade G2: 1 (16.7%) n (%)
  TEAE: Decreased appetite, maximal CTCAE grade G3: 0 n (%)
  TEAE: Decreased appetite, maximal CTCAE grade G4: 0 n (%)
  TEAE: Decreased appetite, maximal CTCAE grade G5: 0 n (%)
  TEAE: GGT increased: 0 n (%)
  TEAE: GGT increased, any grade (Table S3): 0 n (%)
  TEAE: GGT increased, maximal CTCAE grade G1: 0 n (%)
  TEAE: GGT increased, maximal CTCAE grade G2: 0 n (%)
  TEAE: GGT increased, maximal CTCAE grade G3: 0 n (%)
  TEAE: GGT increased, maximal CTCAE grade G4: 0 n (%)
  TEAE: GGT increased, maximal CTCAE grade G5: 0 n (%)
  TEAE: Hypoalbuminemia: 1 (16.7%) n (%)
  TEAE: LDH increased: 0 n (%)
  TEAE: LDH increased, any grade (Table S3): 0 n (%)
  TEAE: LDH increased, maximal CTCAE grade G1: 0 n (%)
  TEAE: LDH increased, maximal CTCAE grade G2: 0 n (%)
  TEAE: LDH increased, maximal CTCAE grade G3: 0 n (%)
  TEAE: LDH increased, maximal CTCAE grade G4: 0 n (%)
  TEAE: LDH increased, maximal CTCAE grade G5: 0 n (%)
  TEAE: Lymphocyte count decreased: 3 (50.0%) n (%)
  TEAE: Platelet count decreased: 1 (16.7%) n (%)
  TEAE: Proteinuria: 1 (16.7%) n (%)
  TEAE: Sinus tachycardia: 2 (33.3%) n (%)
  TEAE: Urine protein present: 1 (16.7%) n (%)
  TEAE: White blood cell count decreased: 1 (16.7%) n (%)
  TEAE: White blood cells urine positive: 0 n (%)
  TEAE: White blood cells urine positive, any grade (Table S3): 0 n (%)
  TEAE: White blood cells urine positive, maximal CTCAE grade G1: 0 n (%)
  TEAE: White blood cells urine positive, maximal CTCAE grade G2: 0 n (%)
  TEAE: White blood cells urine positive, maximal CTCAE grade G3: 0 n (%)
  TEAE: White blood cells urine positive, maximal CTCAE grade G4: 0 n (%)
  TEAE: White blood cells urine positive, maximal CTCAE grade G5: 0 n (%)
  TRAE: ALP increased: 1 (16.7%) n (%)
  TRAE: ALT increased: 0 n (%)
  TRAE: AST increased: 0 n (%)
  TRAE: Anemia: 1 (16.7%) n (%)
  TRAE: GGT increased: 0 n (%)
  TRAE: LDH increased: 0 n (%)
  TRAE: Lymphocyte count decreased: 2 (33.3%) n (%)
  TRAE: Protein urine present: 1 (16.7%) n (%)
  TRAE: Proteinuria: 0 n (%)
  Treatment-emergent Proteinuria (grouped PTs), G1: 2 (33.3) n (%)
  Treatment-emergent Proteinuria (grouped PTs), G2: 0 n (%)
  Treatment-emergent Proteinuria (grouped PTs), G3: 0 n (%)
  Treatment-emergent Proteinuria (grouped PTs: proteinuria and urine protein present), any grade: 2 (33.3) n (%)
[1]
  At least one TEAE: 12 (100%) n (%)
  At least one TEAE (Table S3): 12 (100%) n (%)
  At least one TRAE: 11 (91.7%) n (%)
  TEAE: ALP increased: 2 (16.7%) n (%)
  TEAE: ALT increased: 3 (25.0%) n (%)
  TEAE: ALT increased, any grade (Table S3): 3 (25.0%) n (%)
  TEAE: ALT increased, maximal CTCAE grade G1: 3 (25.0%) n (%)
  TEAE: ALT increased, maximal CTCAE grade G2: 0 n (%)
  TEAE: ALT increased, maximal CTCAE grade G3: 0 n (%)
  TEAE: ALT increased, maximal CTCAE grade G4: 0 n (%)
  TEAE: ALT increased, maximal CTCAE grade G5: 0 n (%)
  TEAE: AST increased: 4 (33.3%) n (%)
  TEAE: AST increased, any grade (Table S3): 4 (33.3%) n (%)
  TEAE: AST increased, maximal CTCAE grade G1: 3 (25.0%) n (%)
  TEAE: AST increased, maximal CTCAE grade G2: 1 (8.3%) n (%)
  TEAE: AST increased, maximal CTCAE grade G3: 0 n (%)
  TEAE: AST increased, maximal CTCAE grade G4: 0 n (%)
  TEAE: AST increased, maximal CTCAE grade G5: 0 n (%)
  TEAE: Abdominal distention: 2 (16.7%) n (%)
  TEAE: Abdominal pain: 4 (33.3%) n (%)
  TEAE: Anemia: 3 (25.0%) n (%)
  TEAE: Asthenia: 2 (16.7%) n (%)
  TEAE: Bilirubin conjugated increased: 3 (25.0%) n (%)
  TEAE: Blood albumin decreased: 1 (8.3%) n (%)
  TEAE: Blood bilirubin increased: 0 n (%)
  TEAE: C-reactive protein increased: 3 (25.0%) n (%)
  TEAE: C-reactive protein increased, any grade (Table S3): 3 (25.0%) n (%)
  TEAE: C-reactive protein increased, maximal CTCAE grade G1: 3 (25.0%) n (%)
  TEAE: C-reactive protein increased, maximal CTCAE grade G2: 0 n (%)
  TEAE: C-reactive protein increased, maximal CTCAE grade G3: 0 n (%)
  TEAE: C-reactive protein increased, maximal CTCAE grade G4: 0 n (%)
  TEAE: C-reactive protein increased, maximal CTCAE grade G5: 0 n (%)
  TEAE: Constipation: 2 (16.7%) n (%)
  TEAE: Decreased appetite: 0 n (%)
  TEAE: Decreased appetite, any grade (Table S3): 0 n (%)
  TEAE: Decreased appetite, maximal CTCAE grade G1: 0 n (%)
  TEAE: Decreased appetite, maximal CTCAE grade G2: 0 n (%)
  TEAE: Decreased appetite, maximal CTCAE grade G3: 0 n (%)
  TEAE: Decreased appetite, maximal CTCAE grade G4: 0 n (%)
  TEAE: Decreased appetite, maximal CTCAE grade G5: 0 n (%)
  TEAE: GGT increased: 4 (33.3%) n (%)
  TEAE: GGT increased, any grade (Table S3): 4 (33.3%) n (%)
  TEAE: GGT increased, maximal CTCAE grade G1: 3 (25.0%) n (%)
  TEAE: GGT increased, maximal CTCAE grade G2: 1 (8.3%) n (%)
  TEAE: GGT increased, maximal CTCAE grade G3: 0 n (%)
  TEAE: GGT increased, maximal CTCAE grade G4: 0 n (%)
  TEAE: GGT increased, maximal CTCAE grade G5: 0 n (%)
  TEAE: Hypoalbuminemia: 3 (25.0%) n (%)
  TEAE: LDH increased: 2 (16.7%) n (%)
  TEAE: LDH increased, any grade (Table S3): 2 (16.7%) n (%)
  TEAE: LDH increased, maximal CTCAE grade G1: 2 (16.7%) n (%)
  TEAE: LDH increased, maximal CTCAE grade G2: 0 n (%)
  TEAE: LDH increased, maximal CTCAE grade G3: 0 n (%)
  TEAE: LDH increased, maximal CTCAE grade G4: 0 n (%)
  TEAE: LDH increased, maximal CTCAE grade G5: 0 n (%)
  TEAE: Lymphocyte count decreased: 4 (33.3%) n (%)
  TEAE: Platelet count decreased: 1 (8.3%) n (%)
  TEAE: Proteinuria: 2 (16.7%) n (%)
  TEAE: Sinus tachycardia: 1 (8.3%) n (%)
  TEAE: Urine protein present: 1 (8.3%) n (%)
